According to patent US20050020544A1, “Bicyclic CB2 cannabinoid receptor ligands” (priority 2002, published 2005):
Read-outs that look alike come from different tables or passages of the source.

Key:
human CB2 receptor = human CB2 receptor (Homo sapiens, UniProt P34972); assay: biochemical; format: binding; parameters: purchased Perkin Elmer/NEN; host or cells: CHO cells, stably transfected (membranes); settings: for CB2/CB1 affinity ratio: IC50 CB1/IC50 CB2; for IC50: displacement of [3H]WIN 55212-2, hCB2 CHO membranes
Sequence of human CB2 receptor (P34972 whole entry): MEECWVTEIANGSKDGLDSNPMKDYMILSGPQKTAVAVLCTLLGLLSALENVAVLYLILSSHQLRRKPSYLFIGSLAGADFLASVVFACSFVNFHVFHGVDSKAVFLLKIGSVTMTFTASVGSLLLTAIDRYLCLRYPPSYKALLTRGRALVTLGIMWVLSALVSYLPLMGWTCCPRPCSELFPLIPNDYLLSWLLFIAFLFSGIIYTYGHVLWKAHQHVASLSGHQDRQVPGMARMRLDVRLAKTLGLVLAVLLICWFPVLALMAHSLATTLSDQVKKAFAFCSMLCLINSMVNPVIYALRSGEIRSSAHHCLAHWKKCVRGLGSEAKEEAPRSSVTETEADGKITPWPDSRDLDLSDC
Experimental: (§1) In the present invention, binding affinity is represented by the IC50 value, namely the concentration of a test compound that will displace 50% of a radiolabeled agonist from the CB receptors. […] Preferably these ratios will be obtained for human CB1 and CB2 receptors. The selectivity toward CB2, denoted CB2/CB1 affinity, is calculated as the IC50 value obtained by the test compound for the displacement of the CB1 specific radioligand divided by the IC50 value obtained for the displacement of the CB2 specific radioligand, i.e. the IC50 CB1/IC50 CB2.
The affinities of the novel bicyclic analogs to the CB2 receptor were determined by their ability to displace [^3H]WIN 55212-2 from the receptor in membranes derived from hCB2 stably transfected CHO cells (Perkin Elmer/NEN). Membranes were diluted in assay buffer (10 mM HEPES, 1 mM MgCl2, 1 mM EDTA, 0.3 mg/ml BSA, pH=7.4) to 500 μg protein/ml. 50 μl of diluted membranes (25 μg) were incubated with 0.8 nM of [^3H]WIN 55212-2 in the presence or absence of several concentrations of the bicyclic test compounds in a total volume of 1 ml. Tested compounds were dissolved and diluted as previously described for the hCB1 assay. Non-specific binding was measured by the addition of 10 μM CP 55940. Following 40 minutes incubation at 30° C. reactions were filtered as previously described. Filters for all binding assays were counted in a β-counter and log of analog concentration versus % of binding was plotted. IC50 values were extrapolated from this plot.
(§2) Binding to CB1 is measured by competitive inhibition of [^3H]CP55940 in HEK-293 cells stably transfected with the human CB1 receptor gene. Binding to CB2 is measured by competitive inhibition of [^3H]WIN55212-2 in CHO cells stably transfected with the human CB2 receptor gene.

ICR male mice = assay: Tail flick model for acute peripheral pain, i.p.; format: in vivo, mouse
Experimental: ICR male mice (20-30 g average body weight, Harlan, Israel) were injected i.p. at the volume dose of 5 ml/kg. Each treatment group contained at least 6 animals. Morphine HCl was used as positive control at the final dose of 5 mg/kg. Its vehicle, saline, was also included as control. The test compounds were dissolved in CREMOPHOR EL®:ethanol and diluted 1:20 in saline prior to injection, this second type of vehicle was also included as negative control. The final dose injected varied from 0.1 to 10 mg/kg. At predetermined time points after treatment injection, the animals were placed in the tail flick system (Socrel, model DS 20). Animals were gently held while their tails were located above the photoelectric cell. The tails were then illuminated (21V) at 2 cm from the distal tip and the latency time, measured in seconds, was recorded in duplicates. At the end of the study, the animals were euthanized by i.p. injection of 100 mg/kg sodium pentobarbitone.
Two parameters were used to analyze the results, the latency time and the % of animals showing analgesia. […] The results in both cases are expressed as mean±SE. The differences between the latency times or the % of animals showing analgesia among various treatment groups was analyzed by analysis of variance (ANOVA) followed by post-hoc Tukey's test (for latency) or Fisher's exact test (for % animals). A value of p<0.05 is considered to be statistically significant.

human CB1 receptor = target: T1, human CB1 receptor (Homo sapiens, UniProt P21554); assay: biochemical; format: binding; settings: displacement of [3H]CP55940, hCB1 HEK-293 membranes; read-out: CB1 IC50
T1 construct: purchased Perkin Elmer/NEN; host or cells: HEK-293 cells, stably transfected (membranes)
T1 sequence (P21554 whole entry): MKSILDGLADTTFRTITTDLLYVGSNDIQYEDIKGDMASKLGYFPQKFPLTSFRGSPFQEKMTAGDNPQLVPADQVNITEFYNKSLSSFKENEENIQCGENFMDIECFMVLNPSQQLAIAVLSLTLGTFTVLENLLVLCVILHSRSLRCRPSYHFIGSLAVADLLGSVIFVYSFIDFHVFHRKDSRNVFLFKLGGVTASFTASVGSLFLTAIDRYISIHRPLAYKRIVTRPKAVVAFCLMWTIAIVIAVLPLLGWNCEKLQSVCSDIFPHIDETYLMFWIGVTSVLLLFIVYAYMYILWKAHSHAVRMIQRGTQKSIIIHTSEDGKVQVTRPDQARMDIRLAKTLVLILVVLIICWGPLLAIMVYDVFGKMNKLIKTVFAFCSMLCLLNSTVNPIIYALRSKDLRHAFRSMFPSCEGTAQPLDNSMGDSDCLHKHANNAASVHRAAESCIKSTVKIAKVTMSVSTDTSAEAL
Experimental: as §1
The CB1 binding assays were performed by testing the ability of the new compounds to displace [^3H]CP55940 from the CB1 receptor on membranes derived from hCB1 stably transfected HEK-293 cells (Perkin Elmer/NEN). Membranes were diluted in the assay buffer (50 mM Tris-HCl, 2.5 mM EDTA, 5 mM MgCl2, 1 mg/ml BSA, pH=7.4) to 500 μg protein/ml. 50 μl of diluted membranes (25 μg) were incubated with [^3H]CP55940 in the presence or absence of the bicyclic test compounds in a total volume of 0.5 ml. Tested compounds were dissolved in DMSO and diluted in the assay buffer to a final concentration of 0.1% solvent. Control samples were added with identical amount of vehicle. Non-specific binding was measured by the addition of 10 μM of WIN 55212-2. Following 1.5 hours incubation at 30° C. reactions were filtered through Whatman 934A/H filters (presoaked with 0.1% Polyethylenimine (PEI)).
as §2

Male Sprague Dawley rats = assay: Inflammatory pain: carrageenan paw edema in rats, thermal and mechanical stimuli; format: in vivo, rat; settings: for ΔForce (tactile stimulus) / ΔLT (thermal stimulus): 10 mg/kg i.p., three hours; for analgesic activity of the antagonists by themselves: 5 mg/kg i.p.
Experimental: Male Sprague Dawley rats (200 g average body weight, Harlan, Israel) are transiently sedated by placement on dry ice for the duration of the injections. […] Before induction of inflammatory pain and three hours after injection, the animals reactions to pain stimuli were tested in two systems. The first stimulus was thermal and assessed by the Plantar Test according to Hargreaves, using Ugo Basile Model 7370. The scale was set to an intensity of 50 arbitrary units. The latency time till the animal lift a paw as a reaction to the thermal stimulus was recorded for both the inflamed and non-inflamed hind paws. The second stimulus was mechanical (tactile) and assessed using a Dynamic Plantar Sesthesiomether (Ugo Basile Model 73400-002).
The results are measured as the differences between the two hind paws at time 0 and 3 hours both as ALT, for the latency time in the thermal part of the study, and as ΔForce, for the mechanical part of the study.

Female Balb/c mice = test system: Female Balb/c mice
Experimental: The purpose of this study is to test in vivo the anti-inflammatory activity of the compounds in paw edema induced by injection of 1% carrageenan in the animal hind paw. Female Balb/c mice (20 g average body weight, Harlan, Israel) are anesthetized with a combination of xylazine and pentobarbitone diluted in sterile saline, 15 and 6 mg/kg i.p. respectively. Anesthetized mice are injected subcutaneously, in the subplantar region of one (right) paw with 0.05 ml of 1% w/v Carrageenan in sterile water. […] The test compounds, including known anti-inflammatory controls, are dissolved in CREMOPHOR EL®:ethanol and further diluted 1:20 or 1:50 in sterile saline prior to i.p. injection that takes place immediately before the carrageenan injection. Three hours after injection the animals are resedated following the previously described procedure. Paw thickness is measured using a dial thickness gauge (Spring-dial, constant low pressure gauge, Mitutoyo, TG/L-1, 0.01 mm) and paw volume is measured using a plethysmometer (model #7150, Ugo Basile, Italy). Paw Edema is expressed as the difference between the right treated and the left untreated paws of the same animal, either as Δ Paw Volume (ΔPV) in millimeters cube or as Δ Paw Thickness (ΔPT) in millimeters. Each group comprises at least 10 animals. […] At the end of the study, animals are euthanized with an i.p. injection of 100 mg/kg pentobarbitone.
The differences among various treatment groups are analyzed by analysis of variance (ANOVA) followed by post-hoc Fisher test. A value of p<0.05 is considered to be statistically significant.
For sake of comparison, known anti-inflammatory drugs such as Celecoxib and Dexamethasone yield respectively in the range of relevant doses 7% and 26% reduction in paw thickness at 0.1 mg/kg, 16% and 31% at 0.25 mg/kg and 24% and 33% at 0.5 mg/kg. […] It should be kept in mind that these commercially available drugs display serious side effects that prevent chronic uses without complementary protective medication.

[1] = 10 mg/kg i.p., 330 minutes (five and a half hours)

Row | Compound | CB2/CB1 affinity ratio (human CB2 receptor) | IC50 (human CB1 receptor) | IC50 (human CB2 receptor) | further results
1 | CCCCCCC(C)(C)c1cc(O)c([C@@H]2CC(=O)C3CC2C3(C)C)c(O)c1 (single isomer, unassigned; (+)) [(+) enantiomer of compound A, reference compound] | 10 |  |  | latency time (ICR male mice; 4 mg/kg i.p., thirty minutes): 2.4 s
2 | CCCCCCC(C)(C)c1cc(O)c(C2CC(=O)[C@H]3C[C@@H]2C3(C)C)c(OC(=O)/C=C/C(=O)O)c1 (single isomer, unassigned; (-)) [Compound Z, (−)-4-{4-[1,1-Dimethyl-heptyl]-2-fumarate-6-hydroxy-phenyl}-6,6-dimethyl-bicyclo[3.1.1]heptan-2-one] | 656 | 816 nM | 1.2 nM | % animals showing increased analgesia (ICR male mice; [1]): about 60%; latency time (ICR male mice; [1]): 5.2 s; ΔForce (tactile stimulus) (Male Sprague Dawley rats): 2 g
3 | CC(C)(c1ccc(Cl)cc1)c1cc(O)c(C2CC(=O)C3CC2C3(C)C)c(O)c1 (single isomer, unassigned; (-)) [Compound J, (−)-4-{4-[1-(4-Chloro-phenyl)-1-methyl-ethyl]-2,6-dihydroxy-phenyl]-6,6-dimethyl-bicyclo[3.1.1]heptan-2-one] | 60 | 659 nM | 11 nM | 
4 | Cc1c(C(=O)NN2CCCCC2)nn(-c2ccc(Cl)cc2Cl)c1-c1ccc(Cl)cc1 [SR141716A, reference compound] |  |  |  | analgesic activity of the antagonists by themselves (Male Sprague Dawley rats): no analgesic activity
5 | CC(C(=O)O)c1cccc(C(=O)c2ccccc2)c1 (stereo not drawn) [Ketoprofen, reference compound] |  |  |  | ΔForce (tactile stimulus) (Male Sprague Dawley rats): 7 g; ΔLT (thermal stimulus) (Male Sprague Dawley rats): 0 s
6 | CC(C)(CCc1ccccc1)c1cc(O)c(C2CC(=O)C3CC2C3(C)C)c(O)c1 (stereo not drawn) [Compound G, 4-[4-(1,1-Dimethyl-3-phenyl-propyl)-2,6-dihydroxy-phenyl]-6,6-dimethyl-bicyclo[3.1.1]heptan-2-one] | 85 | 563 nM | 6.6 nM | 
7 | O=C(O)Cc1ccccc1Nc1c(Cl)cccc1Cl [Diclofenac, reference compound] |  |  |  | ΔForce (tactile stimulus) (Male Sprague Dawley rats): 2 g; ΔLT (thermal stimulus) (Male Sprague Dawley rats): 0 s
8 | CCCCC(C)(C)c1cc(O)c(C2C=C(COC(=O)C(C)(C)C)[C@H]3C[C@@H]2C3(C)C)c(O)c1 (stereo partly drawn) [Compound AH, 2,2-dimethylpropionic Acid-4-{4-[1,1-Dimethyl-pentyl]-2,6-dihydroxy-phenyl}-6,6-dimethyl-bicyclo[3.1.1]hept-2-en-2-yl Methyl Ester] | 9.5 | 398 nM | 42 nM | 
9 | CCC(C)(CC)c1cc(O)c(C2CC(=O)C3CC2C3(C)C)c(O)c1 (single isomer, unassigned; (-)) [Compound M, (−)-4-[4-(1-Ethyl-1-methyl-propyl)-2,6-dihydroxy-phenyl]-6,6-dimethyl-bicyclo[3.1.1]heptan-2-one] | 96 | 3900 nM | 40.8 nM | 
10 | C#CCCCCC(C)(C)c1cc(O)c([C@H]2CC(=O)[C@H]3C[C@@H]2C3(C)C)c(O)c1 [Compound F] | 38 | 13 nM | 0.344 nM | 
11 | CC1=CC(c2c(O)cc(-c3ccc(C(C)(C)C)cc3)cc2O)C2CC1C2(C)C (stereo not drawn) [Compound Q, 5-(1,1-Dimethyl-ethyl-phenyl)-2-(4,6,6-trimethyl-bicyclo[3.1.1]hept-3-en-2-yl)-benzene-1,3-diol] | 53 | 640 nM | 12 nM | 
12 | Cc1ccc(-c2cc(C(F)(F)F)nn2-c2ccc(S(N)(=O)=O)cc2)cc1 [Celecoxib, reference compound] |  |  |  | reduction in paw thickness (Female Balb/c mice; 0.1 mg/kg): 7%; reduction in paw thickness (Female Balb/c mice; 0.25 mg/kg): 16%; reduction in paw thickness (Female Balb/c mice; 0.5 mg/kg): 24%; ΔLT (thermal stimulus) (Male Sprague Dawley rats): 0 s
13 | SR144528 [reference compound] |  |  |  | analgesic activity of the antagonists by themselves (Male Sprague Dawley rats): no analgesic activity
14 | C#CCCCCC(C)(C)c1cc(O)c(C2C=C(C)C3CC2C3(C)C)c(O)c1 (single isomer, unassigned; (+)) [Compound E, (+)-5-(1,1-Dimethyl-hept-6-ynyl)-2-(4,6,6-trimethyl-bicyclo[3.1.1]hept-3-en-2-yl)-benzene-1,3-diol] | 33 | 26 nM | 0.783 nM | 
